Patent US9540338B2, “Substituted cinnamic acid amides for treating pain” (NIPPON ZOKI PHARMACEUTICAL CO., LTD., priority 2012, dated 2017)
Marks after values point to notes of the source that are not given here.

Legend:
Chung model rat = assay: Analgesic efficacy test (2): Chung model rat, neuropathic pain model (allodynia, von Frey filament); format: in vivo, rats; details: mean ± standard error
Method: An analgesic efficacy test was conducted using a Chung model rat, a neuropathic pain model. Nine-week old Wistar male rats were previously bred as an experimental animal, and a model rat was then prepared in accordance with the method of Kim and Chung (Pain, 50, 355-363, 1992). Specifically, left L5 spinal nerves of rats were exposed under anesthetization with pentobarbital (40 mg/kg, intraperitoneal administration), and firmly ligated with 5-0 silk yarn at L5 dorsal root ganglion peripheral side. The animals were placed in a transparent acrylic cage of which bottom was wire netted The measurement of allodynia was carried out using von Frey filament (manufactured by North Coast Medical Inc.) and a 50% reaction threshold was calculated according to an up-down method, in accordance with a method of Chaplan et al. (J. Neurosci. Method, 53, 55-63, 1994). The 50% reaction thresholds were measured twice before injury of the spinal nerve, and those animals of which thresholds were outside the standard were removed from the operation of spinal nerve injury. On or after 14 days from the spinal nerve injury, a 50% reaction threshold was measured, and those showing thresholds of 1 g or more and less than 4 g were used as experimental animal. The group was constituted by 7 or 8 rats per group so that an average of a 50% reaction threshold for each group would be nearly even.
A solution or suspension prepared by dissolving or suspending a compound of the present invention in a 0.5% (w/v) aqueous CMC-Na solution was orally administered as a test substance in a single dose. Also, a 0.5% (w/v) aqueous CMC-Na solution was administered in the same manner to the control group for nerve injury. The measurements of allodynia were carried out with the passage of time after administration, and a 50% reaction threshold (mean±standard error) of each group at action peak was calculated. In the test for significance difference, Bartlett's test was carried out in the comparison between multiple groups of the group administered with test substance with the control group for nerve injury. In the case of homoscedasticity, Dunnett's multiple comparison test of parametrics, and in the case of heteroscedasticity, Dunnett's multiple comparison test of non-parametrics were used. In all cases, significance difference was considered to be found at P<0.05 (indicated as “*” in the tables).

ddY-type mice = assay: Analgesic efficacy test (1): acetic acid writhing test; format: in vivo; details: Mus musculus, writhing number, mean ± standard error, 8 mice per group, read-out: Suppressive Rate; for inhibition in vivo at 10 mg/kg: oral single dose 10 mg/kg; for inhibition in vivo at 100 mg/kg: oral single dose 100 mg/kg
Description: A compound of the present invention was orally administered to mice, to carry out an analgesic efficacy test according to acetic acid writhing test. As an experimental animal, 4-week old male ddY-type mice were previously bred, and thereafter 8 mice per one group were used in the experiment. A solution or suspension prepared by dissolving or suspending a compound of the present invention in a 0.5% (w/v) aqueous CMC-Na solution was orally administered as a test substance in a single dose. While, to a control group, a 0.5% (w/v) aqueous CMC-Na solution was administered in the same manner After 25 minutes from administration, the mice were intraperitoneally administered with a 0.7% (v/v) acetic acid/physiological saline at the dose of 10 mL/kg. From 5 minutes thereafter, writhing number in a 10-minute period was counted, and a suppressive rate for each individual (mean±standard error) was calculated by the following formula: […]
In the test for significance difference, Bartlett's test was carried out in the comparison between multiple groups of the group administered with test substance with the control group. In the case of homoscedasticity, Dunnett's multiple comparison test of parametrics, and in the case of heteroscedasticity, Dunnett's multiple comparison test of non-parametrics were used. In addition, in the test of dose dependency, Jonckheere-Terpstra's test was used. In all cases, significance difference was considered to be found at P<0.05 (indicated as “*” in the table).

[1] = oral 1 mg/kg, measurement point 30 minute (action peak)
[2] = oral 10 mg/kg, measurement point 30 minute (action peak)
[3] = oral 1 mg/kg, measurement point 90 minute (action peak)
[4] = oral 10 mg/kg, measurement point 90 minute (action peak)
[5] = oral 1 mg/kg, measurement point 60 minute (action peak)
[6] = oral 10 mg/kg, measurement point 60 minute (action peak)

| Compound | melting point | 50% Reaction Threshold, Group Administered with Test Substance, After Administration (Chung model rat; [1]) | 50% Reaction Threshold, Group Administered with Test Substance, After Administration (Chung model rat; [2]) | inhibition in vivo at 10 mg/kg (ddY-type mice) | inhibition in vivo at 100 mg/kg (ddY-type mice) | 50% Reaction Threshold, Group Administered with Test Substance, After Administration (Chung model rat; [3]) | 50% Reaction Threshold, Group Administered with Test Substance, After Administration (Chung model rat; [4]) | 50% Reaction Threshold, Group Administered with Test Substance, After Administration (Chung model rat; [5]) | 50% Reaction Threshold, Group Administered with Test Substance, After Administration (Chung model rat; [6]) |
| --- | --- | --- | --- | --- | --- | --- | --- | --- | --- |
| O=C(/C=C/c1ccccc1F)NCCc1ccncc1 [Compound 3, (E)-3-(2-Fluorophenyl)-N-[2-(4-pyridyl)ethyl]-2-propenamide] | 95 to 96 °C |  |  | 44.4 ± 11.1% | 59 ± 8.1% | 6.74 ± 1.04* g | 10.06 ± 1.60* g |  |  |
| O=C(/C=C/c1ccccc1F)NCCN1CCOCC1 [Compound 5, (E)-3-(2-Fluorophenyl)-N-(2-morpholinoethyl)-2-propenamide] | 112 to 113 °C |  |  | 34.8 ± 10.3% | 95.7 ± 3.1% | 4.91 ± 0.73 g | 8.68 ± 1.91* g |  |  |
| O=C(/C=C/c1ccccc1F)NCCN1CCN(C2CCCCC2)CC1 [Compound 6, (E)-N-[2-(4-Cyclohexylpiperazin-1-yl)ethyl]-3-(2-fluorophenyl)-2-propenamide] | 113 to 114 °C |  |  | 29.6 ± 12.8% | 70.4 ± 6.1% | 10.87 ± 1.24* g | 14.06 ± 0.61* g |  |  |
| Cl.NCCCCNC(=O)/C=C/c1ccccc1F [Compound 14, (E)-N-(4-Aminobutyl)-3-(2-fluorophenyl)-2-propenamide hydrochloride] | 177 to 178 °C |  |  | 46.3 ± 11.1% | 76.8 ± 4.1% |  |  | 12.38 ± 1.15* g | 13.61 ± 0.96* g |
| O=C(/C=C/c1ccccc1F)NCCc1c[nH]cn1 [Compound 18, (E)-3-(2-Fluorophenyl)-N-[2-(1H-imidazol-4-yl)ethyl]-2-propenamide] | 152 to 153 °C |  |  | 54.3 ± 13.2% | 62.3 ± 14.6% | 10.92 ± 1.33* g | 11.44 ± 1.95* g |  |  |

Second part, led by results:

| melting point | Compound | 50% Reaction Threshold, Group Administered with Test Substance, After Administration (Chung model rat; [1]) | 50% Reaction Threshold, Group Administered with Test Substance, After Administration (Chung model rat; [2]) | inhibition in vivo at 10 mg/kg (ddY-type mice) | inhibition in vivo at 100 mg/kg (ddY-type mice) | 50% Reaction Threshold, Group Administered with Test Substance, After Administration (Chung model rat; [3]) | 50% Reaction Threshold, Group Administered with Test Substance, After Administration (Chung model rat; [4]) | 50% Reaction Threshold, Group Administered with Test Substance, After Administration (Chung model rat; [5]) | 50% Reaction Threshold, Group Administered with Test Substance, After Administration (Chung model rat; [6]) |
| --- | --- | --- | --- | --- | --- | --- | --- | --- | --- |
| 115 to 116 °C | O=C(/C=C/c1ccccc1F)NCc1cccnc1 [Compound 2, (E)-3-(2-Fluorophenyl)-N-(3-pyridylmethyl)-2-propenamide] | 4.85 ± 0.78 g | 7.76 ± 1.30* g | 39.9 ± 10.4% | 39.9 ± 10% |  |  |  |  |
| 84 to 85 °C | O=C(/C=C/c1ccccc1F)NCCN1CCCCC1 [Compound 4, (E)-3-(2-Fluorophenyl)-N-[2-(1-piperidyl)ethyl]-2-propenamide] | 3.98 ± 0.21 g | 7.35 ± 0.95* g | 47 ± 7.8% | 49 ± 9.2% |  |  |  |  |
| 84 to 85 °C | O=C(/C=C/c1ccccc1F)NCCCN1CCN(C2CCCCC2)CC1 [Compound 7, (E)-N-[3-(4-Cyclohexylpiperazin-1-yl)propyl]-3-(2-fluorophenyl)-2-propenamide] |  |  | 41.5 ± 17.2% | 68.4 ± 8% | 9.05 ± 1.80 g | 12.70 ± 1.16* g |  |  |
| 93 to 94 °C | Cn1cccc1CCNC(=O)/C=C/c1ccccc1F [Compound 8, (E)-3-(2-Fluorophenyl)-N-[2-(1-methyl-1H-pyrrol-2-yl)ethyl]-2-propenamide] |  |  | 8.5 ± 13.9% | 28.1 ± 8.3% | 4.37 ± 0.53 g | 5.57 ± 1.18* g |  |  |
| 153 to 154 °C | Cl.O=C(/C=C/c1ccccc1F)NCCCN1CCOCC1 [Compound 11, (E)-3-(2-Fluorophenyl)-N-(3-morpholinopropyl)-2-propenamide hydrochloride] |  |  | 23.2 ± 12.8% | 68.9 ± 4.5% |  |  | 11.69 ± 1.80* g | 14.27 ± 0.73* g |
| 99 to 100 °C | CN(C)CCCNC(=O)/C=C/c1ccccc1F.Cl [Compound 12, (E)-N-(3-Dimethylaminopropyl)-3-(2-fluorophenyl)-2-propenamide hydrochloride] |  |  | -4.3 ± 12% | 49.4 ± 14.5% |  |  | 4.64 ± 0.70 g | 5.00 ± 1.17 g |
